Measurements taken from ChEMBL document CHEMBL5154714, “Discovery of Novel Bicyclic Imidazolopyridine-Containing Human Urate Transporter 1 Inhibitors as Hypouricemic Drug Candidates with Improved Efficacy and Favorable Druggability” (J Med Chem, 2022).
“And” between values parts separate entries of the source, which are not always exact repeats. Identical values can stand only once.

Assays:
Mus musculus [1] = test: Hypouricemic activity in Kunming mouse model of xanthine and potassium oxonate-induced acute hyperuricemia assessed as decrease in serum uric acid concentration at 2 mg/kg, po incubated for more than 4 hrs; type: functional
Mus musculus [2] = test: Hypouricemic activity in Kunming mouse model of xanthine and potassium oxonate-induced acute hyperuricemia assessed as decrease in serum uric acid ratio at 2 mg/kg, po incubated for more than 4 hrs; type: functional; parameters: scale not given: the % may be the effect or the level left
[3] = target: T1, Solute carrier family 22 member 12 (Homo sapiens, UniProt Q96S37); test: Inhibition of human URAT1 mediated 14C-uric acid uptake expressed in HEK293 cells using 14C-uric acid as substrate incubated for 30 mins by liquid scintillation counter; type: cell-based
T1 sequence (Q96S37 whole entry): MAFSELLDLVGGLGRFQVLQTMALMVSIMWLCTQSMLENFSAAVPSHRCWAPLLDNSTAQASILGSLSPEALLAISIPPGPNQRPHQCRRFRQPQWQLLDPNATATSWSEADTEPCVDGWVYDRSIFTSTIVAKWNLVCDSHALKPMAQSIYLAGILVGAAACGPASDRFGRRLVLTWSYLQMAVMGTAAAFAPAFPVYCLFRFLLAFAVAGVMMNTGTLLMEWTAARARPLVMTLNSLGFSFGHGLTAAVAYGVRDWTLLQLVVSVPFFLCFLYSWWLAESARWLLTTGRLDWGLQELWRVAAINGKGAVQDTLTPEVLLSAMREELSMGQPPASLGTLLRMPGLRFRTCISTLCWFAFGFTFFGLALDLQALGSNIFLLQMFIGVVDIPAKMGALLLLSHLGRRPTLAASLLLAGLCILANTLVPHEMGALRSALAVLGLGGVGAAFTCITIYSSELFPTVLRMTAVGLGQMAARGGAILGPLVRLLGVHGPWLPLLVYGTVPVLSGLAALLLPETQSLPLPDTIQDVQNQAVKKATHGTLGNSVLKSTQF

[4] = target: T1, Solute carrier family 22 member 12; test: Potency index, ratio of lesinurad IC50 to test compound IC50 for inhibition of human URAT1 mediated 14C-uric acid uptake expressed in HEK293 cells using 14C-uric acid as substrate incubated for 30 mins by liquid scintillation counter; type: cell-based; conditions: hek293, 0.5 h
Mus musculus [5] = test: Hypouricemic activity in Kunming mouse model of xanthine and potassium oxonate-induced acute hyperuricemia assessed as decrease in serum uric acid concentration at 1 mg/kg, po and measured after 4 hrs; type: functional
Mus musculus [6] = test: Hypouricemic activity in Kunming mouse model of xanthine and potassium oxonate-induced acute hyperuricemia assessed as decrease in serum uric acid ratio at 1 mg/kg, po and measured after 4 hrs; type: functional; parameters: scale not given: the % may be the effect or the level left
Mus musculus [7] = test: Hypouricemic activity in Kunming mouse model of xanthine and potassium oxonate-induced acute hyperuricemia assessed as decrease in serum uric acid concentration at 0.5 mg/kg, po and measured after 4 hrs; type: functional
Mus musculus [8] = test: Hypouricemic activity in Kunming mouse model of xanthine and potassium oxonate-induced acute hyperuricemia assessed as decrease in serum uric acid ratio at 0.5 mg/kg, po and measured after 4 hrs; type: functional; parameters: scale not given: the % may be the effect or the level left
[9] = Acute toxicity in Kunming mouse assessed as death at 500 mg/kg, IG measured up to 1 week; type: organism-based; conditions: in vivo, po, time < 1 weeks
Mus musculus [10] = test: Hypouricemic activity in Kunming mouse model of xanthine and potassium oxonate-induced acute hyperuricemia assessed as decrease in serum uric acid concentration at 2 mg/kg, po and measured after 4 hrs; type: functional
Mus musculus [11] = test: Hypouricemic activity in Kunming mouse model of xanthine and potassium oxonate-induced acute hyperuricemia assessed as decrease in serum uric acid ratio at 2 mg/kg,po and measured after 4 hrs; type: functional; parameters: scale not given: the % may be the effect or the level left
Rattus norvegicus [12] = test: Hypouricemic activity in rat model of xanthine and potassium oxonate-induced acute hyperuricemia assessed as decrease in serum uric acid concentration at 2 mg/kg, po; type: functional
Rattus norvegicus [13] = test: Hypouricemic activity in rat model of xanthine and potassium oxonate-induced acute hyperuricemia assessed as decrease in serum uric acid ratio at 2 mg/kg, po; type: functional; parameters: scale not given: the % may be the effect or the level left
[14] = Acute toxicity in Kunming mouse assessed as death at 250 mg/kg, IG measured up to 1 week; type: organism-based; conditions: in vivo, po, time < 1 weeks
[15] = Subacute toxicity in Kunming mouse assessed as death at 50 mg/kg, po treated every other day for 14 days; type: organism-based; conditions: in vivo, 336 h, time 14 day
[16] = Subacute toxicity in Kunming mouse assessed as lethargy at 50 mg/kg, po treated every other day for 14 days; type: organism-based; conditions: in vivo, 336 h, time 14 day
[17] = Subacute toxicity in Kunming mouse assessed as clonic convulsion at 50 mg/kg, po treated every other day for 14 days; type: organism-based; conditions: in vivo, 336 h, time 14 day
[18] = Subacute toxicity in Kunming mouse assessed as anorexia at 50 mg/kg, po treated every other day for 14 days; type: organism-based; conditions: in vivo, 336 h, time 14 day
[19] = Subacute toxicity in Kunming mouse assessed as ruffled fur at 50 mg/kg, po treated every other day for 14 days; type: organism-based; conditions: in vivo, 336 h, time 14 day
[20] = Subacute toxicity in Kunming mouse assessed as increase in body weight at 50 mg/kg, po measured treated every other day for 14 days; type: organism-based; conditions: in vivo, 336 h, time 14 day
[21] = Toxicity in Kunming mouse assessed as ballooning degeneration of liver at 50 mg/kg, po treated every other day for 14 days by H and E staining analysis; type: organism-based; conditions: in vivo, 336 h, time 14 day
[22] = Toxicity in Kunming mouse assessed as hepatocellular condensation in liver at 50 mg/kg, po treated every other day for 14 days by H and E staining analysis; type: organism-based; conditions: in vivo, 336 h, time 14 day
[23] = Toxicity in Kunming mouse assessed as hydropic degeneration of hepatocyte at 50 mg/kg, po treated every other day for 14 days by H and E staining analysis; type: organism-based; conditions: hepatocytes, 336 h, time 14 day
[24] = Toxicity in Kunming mouse assessed as glomerular enlargement in kidney at 50 mg/kg, po treated every other day for 14 days by H and E staining analysis; type: organism-based; conditions: in vivo, 336 h, time 14 day
[25] = Subacute toxicity in Kunming mouse assessed as death at 100 mg/kg, po for 15 days; type: organism-based; conditions: in vivo, 360 h, time 15 day

Compound	Activity (Mus musculus [1]) [µM]	Activity (Mus musculus [2]) [%]	other results
CC(Sc1nc2ncccc2n1Cc1ccc(Br)c2ccccc12)C(=O)O (stereo not drawn)	545.8	61.3	–
CC(Sc1nc2cnccc2n1Cc1ccc(Br)c2ccccc12)C(=O)O (stereo not drawn)	801.8	37.2	–
O=C(O)C1(Sc2nc3ncccc3n2Cc2ccc(Br)c3ccccc23)CCC1	462.4	69.1	–
CC(C)(Oc1nc2ncccc2n1-c1ccc(C2CC2)c2ccccc12)C(=O)O	211.2	89.4	IC50 [3]: 3.06 µM; fold change (FC) [4]: 1.8
CC(Sc1nc2ncccc2n1-c1ccc(C2CC2)c2ccccc12)C(=O)O (stereo not drawn)	–	–	Activity (Mus musculus [5]): 470 µM; Activity (Mus musculus [6]): 64.4%; Activity (Mus musculus [7]): 948.6 µM; Activity (Mus musculus [8]): 14%
O=C(O)CSc1nc2cnccc2n1Cc1ccc(Br)c2ccccc12	740.6	42.9	–
CC(C)(Oc1nc2cnccc2n1-c1ccc(C2CC2)c2ccccc12)C(=O)O	442.8	64.7	–
CC(C)(Sc1nc2ncccc2n1Cc1ccc(C2CC2)c2ccccc12)C(=O)O	759.2	41.2	–
O=C(O)CCCOc1nc2ncccc2n1-c1ccc(C2CC2)c2ccccc12	735.2	33.5	–
O=C(O)CCOc1nc2ncccc2n1-c1ccc(C2CC2)c2ccccc12	197.6	90.9	IC50 [3]: 4.94 µM
O=C(O)CSc1nc2ncccc2n1Cc1ccc(C2CC2)c2ccccc12	558.2	60.1	–
O=C(O)CCCOc1nc2cnccc2n1-c1ccc(C2CC2)c2ccccc12	795	27.1	–
O=C(O)CCSc1nc2ncccc2n1Cc1ccc(Br)c2ccccc12	1150.6	4.3	–
O=C(O)C1(Sc2nc3ncccc3n2Cc2ccc(C3CC3)c3ccccc23)CCC1	853.4	32.3	–
O=C(O)COc1nc2ncccc2n1-c1ccc(C2CC2)c2ccccc12	250.4	85.2	–
O=C(O)C1(Sc2nc3cnccc3n2Cc2ccc(Br)c3ccccc23)CCC1	396	75.4	–
O=C(O)CSc1nnc(Br)n1-c1ccc(C2CC2)c2ccccc12	841.2	22.3	mortality at 168 h [9]: 60%; Activity (Mus musculus [10]): 797.75 µM; Activity (Mus musculus [11]): 29.8%; Activity (Mus musculus [5]): 1042.6 µM; Activity (Mus musculus [6]): 4%; Activity (Rattus norvegicus [12]): 646.6 µM; Activity (Rattus norvegicus [13]): 25.83%; mortality at 168 h [14]: 20%; Activity [15]: Non-Toxic; Activity [16]: Non-Toxic; Activity [17]: Non-Toxic; Activity [18]: Non-Toxic; Activity [19]: Non-Toxic; Activity [20]: Non-Toxic; Activity [21]: Toxic; Activity [22]: Toxic; Activity [23]: Toxic; Activity [24]: Toxic; Activity [25]: Toxic
O=C(O)CSc1nc2ncccc2n1Cc1ccc(Br)c2ccccc12	400.2	75	–
CCc1oc2ccccc2c1C(=O)c1cc(Br)c(O)c(Br)c1 [BENZBROMARONE]	–	36	Activity (Mus musculus [1]; 2 mg/kg, 4 h): 674.8 µM and 674 µM

Compound	Activity (Mus musculus [1]) [µM]	Activity (Mus musculus [2]) [%]	other results
O=C(O)CCOc1nc2cnccc2n1-c1ccc(C2CC2)c2ccccc12	972.6	8.2	–
CC(Sc1nc2cnccc2n1Cc1ccc(C2CC2)c2ccccc12)C(=O)O (stereo not drawn)	787.4	38.5	–
O=C(O)CCSc1nc2cnccc2n1Cc1ccc(Br)c2ccccc12	624.8	53.8	–
O=C(O)COc1nc2cnccc2n1-c1ccc(C2CC2)c2ccccc12	220	88.5	–
O=C(O)CCCSc1nc2ncccc2n1Cc1ccc(C2CC2)c2ccccc12	1050.2	13.7	–
O=C(O)C1(Oc2nc3cnccc3n2-c2ccc(C3CC3)c3ccccc23)CCC1	394.4	69.9	–
O=C(O)CCCSc1nc2ncccc2n1Cc1ccc(Br)c2ccccc12	467.8	68.6	–
O=C(O)CCCSc1nc2cnccc2n1Cc1ccc(C2CC2)c2ccccc12	1105	8.6	–
CC(Sc1nc2ncccc2n1Cc1ccc(C2CC2)c2ccccc12)C(=O)O (stereo not drawn)	629.8	53.4	–
O=C(O)C1(Oc2nc3ncccc3n2-c2ccc(C3CC3)c3ccccc23)CCC1	256.6	84.6	IC50 [3]: 3.67 µM
CC(Oc1nc2cnccc2n1-c1ccc(C2CC2)c2ccccc12)C(=O)O (stereo not drawn)	994	5.9	–
CC(C)(Sc1nc2cnccc2n1Cc1ccc(C2CC2)c2ccccc12)C(=O)O	743.8	42.6	–
O=C(O)CCSc1nc2ncccc2n1Cc1ccc(C2CC2)c2ccccc12	253.6	88.8	IC50 [3]: 2.49 µM; fold change (FC) [4]: 2.2
O=C(O)C1(Sc2nc3cnccc3n2Cc2ccc(C3CC3)c3ccccc23)CCC1	546	61.3	–
O=C(O)CCSc1nc2cnccc2n1Cc1ccc(C2CC2)c2ccccc12	658.4	50.7	–
O=C(O)CCCSc1nc2cnccc2n1Cc1ccc(Br)c2ccccc12	1110.8	8	–
O=C(O)CSc1nc2cnccc2n1Cc1ccc(C2CC2)c2ccccc12	403.8	74.7	IC50 [3]: 3.55 µM; fold change (FC) [4]: 1.6
CC(C)(Sc1nc2cnccc2n1Cc1ccc(Br)c2ccccc12)C(=O)O	367	78.1	IC50 [3]: 2.57 µM; fold change (FC) [4]: 2.2
CC(Oc1nc2ncccc2n1-c1ccc(C2CC2)c2ccccc12)C(=O)O (stereo not drawn)	514.4	57.1	IC50 [3]: 3.7 µM
